Reference: US20260053811A1, “METHODS OF TREATING HYPERTENSION IN OBESE SUBJECTS” (Mineralys Therapeutics, Inc., priority 2022, published 2026)

Test system: hypertensive subjects
Test: Estimated glomerular filtration rate (eGFR, CKD-EPI equation)
Type: in vivo, human
Details: Part 1
Protocol: In contrast, mean eGFR for the Placebo group was relatively stable throughout treatment, reaching a mean maximal reduction of −2.80 mL/min/1.73 m^2 at Week 2 (range: −0.83 mL/min/1.73 m^2 to −2.80 mL/min/1.73 m^2). Estimated glomerular filtration rate was estimated using the CKD-EPI equation.

## CC(=O)N[C@H]1CC[C@H](NC(=O)CN2CCN(c3nncc(-c4ccc(C)cc4)n3)CC2)CC1 [Compound A HBr]
100 mg QD, Week 2
  eGFR mean maximum decline relative to baseline: 10.91 mL/min/1.73 m^2
Week 1, 12.5 mg BID
  Estimated Glomerular Filtration Rate, Mean (SD) Change from Baseline: −2.25 (8.42) mL/min/1.73 m^2
  Estimated Glomerular Filtration Rate, Mean (SD) Observed: 79.45 (15.19) mL/min/1.73 m^2
Week 1, 12.5 mg QD
  Estimated Glomerular Filtration Rate, Mean (SD) Change from Baseline: −4.30 (7.14) mL/min/1.73 m^2
  Estimated Glomerular Filtration Rate, Mean (SD) Observed: 73.57 (20.33) mL/min/1.73 m^2
Week 1, 25 mg BID
  Estimated Glomerular Filtration Rate, Mean (SD) Change from Baseline: −6.85 (8.88) mL/min/1.73 m^2
  Estimated Glomerular Filtration Rate, Mean (SD) Observed: 74.00 (13.13) mL/min/1.73 m^2
Week 1, 50 mg QD
  Estimated Glomerular Filtration Rate, Mean (SD) Change from Baseline: −2.96 (8.52) mL/min/1.73 m^2
  Estimated Glomerular Filtration Rate, Mean (SD) Observed: 74.21 (16.88) mL/min/1.73 m^2
Week 1, 100 mg QD
  Estimated Glomerular Filtration Rate, Mean (SD) Change from Baseline: −6.80 (10.03) mL/min/1.73 m^2
  Estimated Glomerular Filtration Rate, Mean (SD) Observed: 70.81 (17.66) mL/min/1.73 m^2
Week 2, 12.5 mg BID
  Estimated Glomerular Filtration Rate, Mean (SD) Change from Baseline: −3.69 (6.46) mL/min/1.73 m^2
  Estimated Glomerular Filtration Rate, Mean (SD) Observed: 78.86 (18.56) mL/min/1.73 m^2
Week 2, 12.5 mg QD
  Estimated Glomerular Filtration Rate, Mean (SD) Change from Baseline: −4.87 (5.03) mL/min/1.73 m^2
  Estimated Glomerular Filtration Rate, Mean (SD) Observed: 73.00 (20.81) mL/min/1.73 m^2
Week 2, 25 mg BID
  Estimated Glomerular Filtration Rate, Mean (SD) Change from Baseline: −5.42 (10.01) mL/min/1.73 m^2
  Estimated Glomerular Filtration Rate, Mean (SD) Observed: 75.43 (15.32) mL/min/1.73 m^2
Week 2, 50 mg QD
  Estimated Glomerular Filtration Rate, Mean (SD) Change from Baseline: −4.32 (9.06) mL/min/1.73 m^2
  Estimated Glomerular Filtration Rate, Mean (SD) Observed: 72.86 (16.55) mL/min/1.73 m^2
Week 2, 100 mg QD
  Estimated Glomerular Filtration Rate, Mean (SD) Change from Baseline: −10.91 (8.57) mL/min/1.73 m^2
  Estimated Glomerular Filtration Rate, Mean (SD) Observed: 65.56 (17.66) mL/min/1.73 m^2
Week 3, 12.5 mg BID
  Estimated Glomerular Filtration Rate, Mean (SD) Change from Baseline: −5.17 (8.54) mL/min/1.73 m^2
  Estimated Glomerular Filtration Rate, Mean (SD) Observed: 77.38 (16.68) mL/min/1.73 m^2
Week 3, 12.5 mg QD
  Estimated Glomerular Filtration Rate, Mean (SD) Change from Baseline: −2.05 (6.43) mL/min/1.73 m^2
  Estimated Glomerular Filtration Rate, Mean (SD) Observed: 77.21 (20.38) mL/min/1.73 m^2
Week 3, 25 mg BID
  Estimated Glomerular Filtration Rate, Mean (SD) Change from Baseline: −5.90 (8.63) mL/min/1.73 m^2
  Estimated Glomerular Filtration Rate, Mean (SD) Observed: 75.07 (11.95) mL/min/1.73 m^2
Week 3, 50 mg QD
  Estimated Glomerular Filtration Rate, Mean (SD) Change from Baseline: −2.35 (8.51) mL/min/1.73 m^2
  Estimated Glomerular Filtration Rate, Mean (SD) Observed: 74.81 (15.62) mL/min/1.73 m^2
Week 3, 100 mg QD
  Estimated Glomerular Filtration Rate, Mean (SD) Change from Baseline: −9.24 (10.99) mL/min/1.73 m^2
  Estimated Glomerular Filtration Rate, Mean (SD) Observed: 67.22 (19.24) mL/min/1.73 m^2
Week 4, 12.5 mg BID
  Estimated Glomerular Filtration Rate, Mean (SD) Change from Baseline: −6.58 (9.17) mL/min/1.73 m^2
  Estimated Glomerular Filtration Rate, Mean (SD) Observed: 76.30 (18.28) mL/min/1.73 m^2
Week 4, 12.5 mg QD
  Estimated Glomerular Filtration Rate, Mean (SD) Change from Baseline: −5.45 (6.37) mL/min/1.73 m^2
  Estimated Glomerular Filtration Rate, Mean (SD) Observed: 73.40 (19.29) mL/min/1.73 m^2
Week 4, 25 mg BID
  Estimated Glomerular Filtration Rate, Mean (SD) Change from Baseline: −6.69 (8.97) mL/min/1.73 m^2
  Estimated Glomerular Filtration Rate, Mean (SD) Observed: 73.48 (15.26) mL/min/1.73 m^2
Week 4, 50 mg QD
  Estimated Glomerular Filtration Rate, Mean (SD) Change from Baseline: −3.61 (9.24) mL/min/1.73 m^2
  Estimated Glomerular Filtration Rate, Mean (SD) Observed: 73.63 (16.75) mL/min/1.73 m^2
Week 4, 100 mg QD
  Estimated Glomerular Filtration Rate, Mean (SD) Change from Baseline: −9.46 (12.53) mL/min/1.73 m^2
  Estimated Glomerular Filtration Rate, Mean (SD) Observed: 67.23 (19.70) mL/min/1.73 m^2
Week 5, 12.5 mg BID
  Estimated Glomerular Filtration Rate, Mean (SD) Change from Baseline: −7.58 (8.00) mL/min/1.73 m^2
  Estimated Glomerular Filtration Rate, Mean (SD) Observed: 73.84 (20.78) mL/min/1.73 m^2
Week 5, 12.5 mg QD
  Estimated Glomerular Filtration Rate, Mean (SD) Change from Baseline: −3.60 (5.70) mL/min/1.73 m^2
  Estimated Glomerular Filtration Rate, Mean (SD) Observed: 75.25 (19.58) mL/min/1.73 m^2
Week 5, 25 mg BID
  Estimated Glomerular Filtration Rate, Mean (SD) Change from Baseline: −7.41 (9.65) mL/min/1.73 m^2
  Estimated Glomerular Filtration Rate, Mean (SD) Observed: 73.25 (14.75) mL/min/1.73 m^2
Week 5, 50 mg QD
  Estimated Glomerular Filtration Rate, Mean (SD) Change from Baseline: −4.10 (9.61) mL/min/1.73 m^2
  Estimated Glomerular Filtration Rate, Mean (SD) Observed: 70.58 (13.23) mL/min/1.73 m^2
